pIC50: −log10 of the molar value.
Key:
[1] = biological target: IKKβ (Homo sapiens, UniProt O14920); assay: Phosphorylation of IκBα by IKKβ; assay type: biochemical
[2] = PK, 7-day intragastric dosing; assay type: in vivo, beagles; conditions: 122 mg/animal once daily
Description: Suzhou Zelgen Biopharmaceuticals Co., Ltd. Jaktinib Hydrochloride Tablets Chemical Drug Class 1 New Drug higher than ZG0163, which was higher than the ratio of intravenous administration. […]
produced through first-pass metabolism. Within the dosage range of 61-244 mg, the AUC0-t of ZG0245 increased proportionally with the increasing dosage.
Pharmacokinetics of 7 consecutive days of multi-dose intragastric […]
After 7 consecutive days of intragastric administration (2 tablets once daily, equal […]
respectively, when compared to single-dose administration. The Cmax and AUC0-t of metabolite ZG0245 were 1.33 and 0.95 times compared to single-dose administration.
Thus, there was no significant accumulation of ZG0163 and metabolite ZG0245 after 7 days of consecutive administration. […]
intragastric administration of 61 mg ZG0163.
ZG0128, and the exposure was 93.0% of that of the medium dosage group (122 […]
of that of the medium dosage group (122 mg/animal).
Identification of Metabolites in Rat Samples
Using UPLC-UV/Q-TOF MS, potential metabolites were identified in rat plasma, urine, feces and bile, after single intragastric administration of 30.5 mg/kg ZG0128, as well as metabolites in mice plasma after single intragastric administration of 61 mg/kg ZG0128. […]

[3] = tested on: Ba/F3-EpoR cell line; assay: Cell activity of Ba/F3-EpoR cell line; assay type: cell-based; conditions: read-out: IC50, inhibition of cell activity
Text: Suzhou Zelgen Biopharmaceuticals Co., Ltd. Jaktinib Hydrochloride Tablets Chemical Drug Class 1 New Drug and ZG0178. However, the inhibitory effect on the activity of Ba/F3-EpoR cell line […]
respectively. Obviously, this selective inhibition is associated with the aberrant expression of JAK2 in Ba/F3-EpoR-JAK2V617F mutant cells, and the degree of ZG0163 inhibition on JAK-STAT signaling pathway in this cell line. […]
cells, and the effects of ZG0163 was similar to those of positive control compounds, […]
In Vitro Inhibitory Effect of ZG0128 on Cell Lines Transfected with Oncogenes and Primary Blood Cells in Patients with Polycythemia Vera
In vitro cell culture assay was used to determine whether compound ZG0128 […]
cell line harboring a JAK2V617F mutation, and 8 HCD-57 cell lines stably transfected with oncogenic mutations JAK2V617F, MPLW515L, KITD816V, NPM-ALK, FLT3-ITD, FLT3D835H, FLT3D835Y and KRasG12V, respectively. In addition, study the inhibitory effects of compound ZG0128 on the growth of hematopoietic progenitor cells in patients with polycythemia vera.
9 cell lines were similar to those of positive control drug ZG0192. At the sub-micromolar concentration, both compounds ZG0128 and ZG0192 were able to […]
the growth of HCD-57 cells transfected with oncogenic mutations JAK2V617F, […]
spectrum inhibitory effect on tyrosine kinases. […]

[4] = Metabolic stability in liver microsomes; assay type: in vitro ADME, mouse
Description: The metabolic stability of ZG0128 (the dihydrochloride monohydrate of ZG0163) was evaluated using human, monkey, dog, rat, and mouse liver microsomes as the in vitro models. The percentages of residues for ZG0128 after incubating in human, monkey, dog, rat, and mouse liver microsomes for 60 minutes was 55.5%, 63.1%, 67.1%, 80.3%, and 79.0%, respectively. The CLint values of in vivo clearance were calculated to be 24.1, 21.6, 33.4, 10.7, 26.0 mL/min/kg, respectively. Thus its was speculated that ZG0128 was a medium clearance drug in humans, monkeys, and mice, a high clearance drug in dogs, and a low clearance drug in rats.
Using UPLC-UV/Q-TOF MS, the potential metabolites of ZG0128 in various liver microsomes (human, monkey, dog, rat and mouse liver microsomes) incubation systems were identified and the metabolic pathways of ZG0128 were speculated. The main metabolite of ZG0128 in above five types of liver microsomes were primary alcohol metabolite formed by morpholine ring-opening (M3). […]

[5] = tested on: CYP1A2; assay type: in vitro ADME, human; conditions: 0.10, 1.00, 10.0 μM
Text: Suzhou Zelgen Biopharmaceuticals Co., Ltd. Jaktinib Hydrochloride Tablets Chemical Drug Class 1 New Drug […]
metabolite formed in human liver microsomes was the morpholine ring-opening metabolite M3. The enzyme phenotype involved in the oxidation of ZG0128 to form M3 was identified with reaction phenotyping assay using chemical inhibition and human recombinant CYP450 enzymes.
Using UPLC/Q-TOF MS, the amount of ZG0128 and primary alcohol metabolite formed by morpholine ring-opening (M3) in human liver microsomes and different incubation systems for human recombinant enzymes, including CYP1A2, CYP2A6, […]
inhibitor 1-ABT, CYP3A inhibitor ketoconazole, and CYP2C8 inhibitor quercetin can […]
for human liver microsomes and inhibit the formation of M3. […]
primary enzyme that produced M3 while CYP1A2, 2D6 and 2C9 were also partly involved. Results from the reaction phenotyping assay using chemical inhibition and […]
microsomes was a morpholine ring-opening metabolite catalyzed mainly by CYP3A4 […]
Inhibition and Induction of ZG0128 on CYP-P450s
The inhibition and induction potentials of ZG0128 on CYP-P450s were evaluated using mixed human liver microsomes and human primary hepatocytes as the in vitro […]
hydroxylation), and CYP3A4 (testosterone 6β-hydroxylation), with an IC50 greater than […]. […]

[6] = General physicochemical properties
Text: Suzhou Zelgen Biopharmaceuticals Co., Ltd. Jaktinib Hydrochloride Tablets Chemical Drug Class 1 New Drug
Table 5. General physicochemical properties of Jaktinib hydrochloride […]
Appearance Yellow to orange crystalline powder; Odorless; Bitter taste […]
methylpyrrolidone; soluble in N, N-dimethyl formamide; […]
acetonitrile, dioxane, tert-butyl methyl ether or water
Jaktinib dihydrochloride monohydrate is a crystalline solid
Crystal Form containing two molecules of hydrogen chloride and one molecule of water of crystallization, with its crystal form being polymorph

IKKβ, sequence (O14920 whole entry, species assumed): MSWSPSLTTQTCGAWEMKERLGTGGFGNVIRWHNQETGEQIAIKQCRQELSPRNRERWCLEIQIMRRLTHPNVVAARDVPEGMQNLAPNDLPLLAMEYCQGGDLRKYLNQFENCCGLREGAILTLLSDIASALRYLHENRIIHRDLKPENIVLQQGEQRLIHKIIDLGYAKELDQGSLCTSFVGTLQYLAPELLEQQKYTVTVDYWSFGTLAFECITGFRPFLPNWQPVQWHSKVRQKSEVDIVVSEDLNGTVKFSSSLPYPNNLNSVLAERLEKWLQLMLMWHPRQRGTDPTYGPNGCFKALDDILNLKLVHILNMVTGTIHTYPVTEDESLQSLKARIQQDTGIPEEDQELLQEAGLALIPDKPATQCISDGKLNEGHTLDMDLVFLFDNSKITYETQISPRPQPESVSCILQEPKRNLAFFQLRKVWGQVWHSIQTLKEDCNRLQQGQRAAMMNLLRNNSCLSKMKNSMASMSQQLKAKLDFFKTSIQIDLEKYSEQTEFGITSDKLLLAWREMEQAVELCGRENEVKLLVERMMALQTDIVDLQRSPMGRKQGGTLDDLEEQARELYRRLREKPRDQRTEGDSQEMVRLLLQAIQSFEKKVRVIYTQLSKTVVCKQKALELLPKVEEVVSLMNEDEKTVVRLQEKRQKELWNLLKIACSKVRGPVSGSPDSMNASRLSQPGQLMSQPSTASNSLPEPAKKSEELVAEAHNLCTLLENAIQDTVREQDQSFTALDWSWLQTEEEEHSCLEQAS

Row | Compound | effect on phosphorylation of IκBα by IKKβ [1] | day on which steady state was reached [2] | pIC50 [3] | CLint of in vivo clearance [4] | percentage of residue after 60 minutes [4] | in vitro induction [5] | Hygroscopicity [6] | Solubility ([6]; 0.1 mol/L hydrochloric acid) | Solubility ([6]; dimethyl sulfoxide) | Solubility ([6]; ethanol) | Solubility ([6]; methanol) | Solubility ([6]; water)
1 | Jaktinib | no significant effects | 5 days | 5.82 | – | – | – | – | – | – | – | – | –
2 | Cl.Cl.O.[2H]C1([2H])COCC([2H])([2H])N1c1ccc(Nc2nccc(-c3ccc(C(=O)NCC#N)cc3)n2)cc1 [ZG0128, Jaktinib Dihydrochloride Monohydrate] | – | – | – | 26.0 mL/min/kg | 79.0% | no in vitro induction | Slightly hygroscopic | slightly soluble | freely soluble | slightly soluble in ethanol | slightly soluble | practically insoluble

Reference: paper PMC7849180 (Frontiers in Pharmacology, 2020)
